Reference: patent publication US20230203480A1, “LIPID NANOPARTICLE FORMULATIONS FOR CRISPR/CAS COMPONENTS” (Intellia Therapeutics, Inc., priority 2016, published 2023)

Assay: Pharmacokinetic profile of Lipid A in liver and plasma (LC/MS)
Format: in vivo, mouse
Conditions: mice, after LNP administration
Method: Three different guide sequences were separately formulated, according to Example 1, and injected into mice (n=3) to determine the pharmacokinetic profile of Lipid A. Levels of Lipid A in mouse liver and plasma were measured by LC/MS. […] Tmax in liver was achieved within 30 minutes of administration, whereas T112 in plasma and liver were achieved within approximately 5-6 hours of LNP administration.

Structure (SMILES): CCCCC/C=C\C/C=C\CCCCCCCC(=O)OCC(COC(=O)CCC(OCCCCCCCC)OCCCCCCCC)COC(=O)OCCCN(CC)CC (stereo not drawn) [Lipid A, (9Z,12Z)-3-((4,4-bis(octyloxy)butanoyl)oxy)-2-((((3-(diethylamino)propoxy)carbonyl)oxy)methyl)propyl octadeca-9,12-dienoate]
- Tmax (CD-1, mouse, liver, intravenous): ≤ 30 min
- T112 in liver: 5 to 6 h
- T112 in plasma: 5 to 6 h
